In patent publication US8987195B2 (priority 2012, dated 2015):
Where two headings read alike, the source gives them in different places.

How the values were obtained:
[1] = molecular target: HCV NS3/4A protease genotype 1b (Hepatitis C virus genotype 1b, UniProt P26663); experiment: HCV NS3/4A protease time-resolved fluorescence (TRF) assay, Ki against genotype 1b; assay type: biochemical; details: IC50 [gt-1b] (nM), NS3/4A genotype 1b, enzyme 0.2 nM
How it was run: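 Ki values come from IC50 fits corrected for substrate concentration and KM. The time-resolved fluorescence protease reaction used 25 nM peptide substrate, 2.5 h, room temperature, pH 7.5 HEPES buffer, after 30 min enzyme–inhibitor preincubation.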

[2] = tested on: HCV genotype 1b replicon; experiment: HCV replicon assay, genotype 1b replicon EC50; assay type: cell-based, Hepatitis C virus; details: genotype 1b replicon, read-out: EC50 [gt-1b]
Protocol: Measuring Compound Inhibitory Potency (Genotype 1b Replicon EC50 (nM))
Measurement of inhibition by compounds was performed using the HCV replicon system. Several different replicons encoding different HCV genotypes or mutations were used. In addition, potency measurements were made using different formats of the replicon assay, including different ways of measurements and different plating formats. See Jan M. Vrolijk et al., A replicons-based bioassay for the measurement of interferons in patients with chronic hepatitis C, 110 J. VIROLOGICAL METHODS 201 (2003); Steven S. Carroll et al., Inhibition of Hepatitis C Virus RNA Replication by 2′-Modified Nucleoside Analogs, 278(14) J. BIOLOGICAL CHEMISTRY 11979 (2003). However, the underlying principles are common to all of these determinations, and are outlined below.
Stable neomycin phosphotransferase encoding replicon-harboring cell lines were used, so all cell lines were maintained under G418 selection prior to the assay. In some cases the cell lines encoded a luciferase:Neo^r fusion and could be assayed either directly by determination of RNA copy number, or indirectly through measurement of the luciferase activity.
To initiate an assay, replicon cells were plated in the presence of a dilution series of test compound in the absence of G418. Typically, the assays were performed in a 96-well plate format for manual operation, or a 384 well plate in an automated assay. Replicon cells and compound were incubated for 24-48 hours, depending on the assay. At the end of the assay, cells are washed free of media and compound and then lysed. For direct quantitation, RNA levels were measured by ^32P-probe hybridization and protection, or in a TAQMAN based assay and normalized to cellular cyclophilin A RNA levels. In some cases, luciferase activity was measured using a conventional luciferase assay. In all cases EC50 determinations were calculated as a percent of a DMSO control by fitting the data to a four parameter fit function.

Chain of HCV NS3/4A protease genotype 1b (P26663 1027-1657): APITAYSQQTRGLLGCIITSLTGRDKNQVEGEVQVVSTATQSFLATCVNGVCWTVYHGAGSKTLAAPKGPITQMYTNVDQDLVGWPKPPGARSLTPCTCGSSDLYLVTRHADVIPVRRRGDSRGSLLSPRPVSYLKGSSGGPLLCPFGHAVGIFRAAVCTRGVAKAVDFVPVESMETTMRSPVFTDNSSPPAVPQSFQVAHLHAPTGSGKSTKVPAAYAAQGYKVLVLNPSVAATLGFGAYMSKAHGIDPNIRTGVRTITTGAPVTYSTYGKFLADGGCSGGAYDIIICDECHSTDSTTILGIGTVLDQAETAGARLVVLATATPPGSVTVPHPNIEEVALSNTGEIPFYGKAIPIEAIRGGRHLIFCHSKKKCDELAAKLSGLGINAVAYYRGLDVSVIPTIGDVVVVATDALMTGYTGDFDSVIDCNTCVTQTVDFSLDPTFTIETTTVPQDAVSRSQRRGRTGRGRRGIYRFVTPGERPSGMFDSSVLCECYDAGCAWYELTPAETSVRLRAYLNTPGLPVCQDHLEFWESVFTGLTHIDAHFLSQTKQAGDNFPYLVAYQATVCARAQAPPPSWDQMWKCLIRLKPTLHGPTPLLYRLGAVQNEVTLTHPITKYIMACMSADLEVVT
Chain of HCV NS3/4A protease genotype 1b (P26663 1658-1711): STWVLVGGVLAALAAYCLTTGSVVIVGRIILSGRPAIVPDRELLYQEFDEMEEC

Row | Compound | IC50 [1] | EC50 ([2]; Hepatitis C virus) | EC50 [2] | other results
1 | Cc1nc2ccccc2c2c1O[C@]1(CC2)C[C@H]2C(=O)N[C@]3(C(=O)NS(=O)(=O)C4(C)CC4)C[C@H]3/C=C\CCCCC[C@H](NC(=O)OC(CN(C)S(C)(=O)=O)C(C)(C)C)C(=O)N2C1 (single isomer, unassigned) [Example 259] | 0.007 nM | 24 nM | – | –
2 | Cc1nc2ccccc2c2c1O[C@]1(CC2)C[C@H]2C(=O)N[C@]3(C(=O)NS(=O)(=O)C4(C)CC4)C[C@H]3/C=C\CCCCC[C@H](NC(=O)OC(CN(C)S(C)(=O)=O)C(C)(C)C)C(=O)N2C1 (single isomer, unassigned) [Example 262] | 0.037 nM | – | 38.9 nM | –
3 | COc1ccc2c3c(c(C4CC4)nc2c1)O[C@]1(CC3)C[C@H]2C(=O)N[C@]3(C(=O)NS(=O)(=O)C4(C)CC4)C[C@H]3/C=C\CCCCC[C@H](NC(=O)CC(C)(C)C)C(=O)N2C1 (single isomer, unassigned) [Example 279] | – | – | – | IC50 ([1]; HCOOH salt): 0.051 nM; EC50 ([2]; Hepatitis C virus, HCOOH salt): 22.3 nM
4 | CCc1ccc2nc(C)c3c(c2c1)C(F)C[C@]1(C[C@H]2C(=O)N[C@]4(C(=O)NS(=O)(=O)C5(C)CC5)C[C@H]4/C=C\CCCCC[C@H](NC(=O)OC(C)(C)C)C(=O)N2C1)O3 (single isomer, unassigned) [Example 315] | 1.29 nM | – | 294 nM | –
5 | CCc1ccc2nc(C)c3c(c2c1)C(F)C[C@]1(C[C@H]2C(=O)N[C@]4(C(=O)NS(=O)(=O)C5(C)CC5)C[C@H]4/C=C\CCCCC[C@H](NC(=O)OC(C)(C)C)C(=O)N2C1)O3 (single isomer, unassigned) [Example 316] | 0.008 nM | – | 2.63 nM | –
6 | CCc1ccc2nc(C)c3c(c2c1)C(F)C[C@]1(C[C@H]2C(=O)N[C@]4(C(=O)NS(=O)(=O)C5(C)CC5)C[C@H]4/C=C\CCCCC[C@H](NC(=O)OC(C)(C)C(F)(F)F)C(=O)N2C1)O3 (single isomer, unassigned) [Example 346] | 0.012 nM | – | 4.23 nM | –
7 | CCc1ccc2nc(C)c3c(c2c1)C(F)C[C@]1(C[C@H]2C(=O)N[C@]4(C(=O)NS(=O)(=O)C5(C)CC5)C[C@H]4/C=C\CCCCC[C@H](NC(=O)OC(C)(C)C(F)(F)F)C(=O)N2C1)O3 (single isomer, unassigned) [Example 347] | 0.981 nM | – | 3060 nM | –
8 | Cc1nc2ccccc2c2c1O[C@]1(CC2)C[C@H]2C(=O)N[C@]3(C(=O)NS(=O)(=O)C4(C)CC4)C[C@H]3/C=C\CCCCC[C@H](NC(=O)NC(C)(C)C)C(=O)N2C1 [Example 76, (2R,6S,12Z,13aS,14aR,16a5)-6-[(tert-butylcarbamoyl)amino]-5′-methyl-N-[(1-methylcyclopropyl)sulfonyl]-5,16-dioxo-1,1′,2′,6,7,8,9,10,11,13a,14,15,16,16a-tetradecahydrospiro[cyclopropa[e]pyrrolo[1,2-a][1,4]diazacyclopentadecine-2,3′-pyrano[2,3-c]quinoline]-14a(5H)-carboxamide] | – | 11.9 nM | – | –
9 | CC(C)(C)OC(=O)N[C@H]1CCCCC/C=C\[C@@H]2C[C@@]2(C(=O)O)NC(=O)[C@@H]2C[C@]3(CCc4c(c(-c5cccc(F)c5)nc5ccccc45)O3)CN2C1=O [Example 77, (2R,6S,12Z,13aS,14aR,16aS)-6-[(tert-butoxycarbonyl)amino]-5′-(3-fluorophenyl)-5,16-dioxo-1,1′,2′,6,7,8,9,10,11,13a,14,15,16,16a-tetradecahydrospiro[cyclopropa[e]pyrrolo[1,2-a][1,4]diazacyclopentadecine-2,3′-pyrano[2,3-c]quinoline]-14a(5H)-carboxylic acid] | – | > 100 nM | – | –
10 | Cc1nc2ccccc2c2c1O[C@]1(CC2)C[C@H]2C(=O)N[C@]3(C(=O)NS(=O)(=O)C4(C)CC4)C[C@H]3/C=C\CCCCC[C@H](NC(=O)OC3(C)CCC3)C(=O)N2C1 [Example 80, 1-methylcyclobutyl [(2R,6S,12Z,13aS,14aR,16aS)-5′-methyl-14a-{[(1-methylcyclopropyl)sulfonyl]carbamoyl}-5,16-dioxo-1,1′,2′,5,6,7,8,9,10,11,13a,14,14a,15,16,16a-hexadecahydrospiro[cyclopropa[e]pyrrolo[1,2-a][1,4]diazacyclopentadecine-2,3′-pyrano[2,3-c]quinolin]-6-yl]carbamate] | – | 1.47 nM | – | –
11 | CC1(S(=O)(=O)NC(=O)[C@@]23C[C@H]2/C=C\CCCCC[C@H](NC(=O)OC2CCCC2)C(=O)N2C[C@@]4(CCc5c(c(-c6cccc(F)c6)nc6ccccc56)O4)C[C@H]2C(=O)N3)CC1 [Example 81, cyclopentyl [(2R,6S,12Z,13aS,14aR,16aS)-5′-(3-fluorophenyl)-14a-{[(1-methylcyclopropyl)sulfonyl]carbamoyl}-5,16-dioxo-1,1′,2′,5,6,7,8,9,10,11,13a,14,14a,15,16,16a-hexadecahydrospiro[cyclopropa[e]pyrrolo[1,2-a][1,4]diazacyclopentadecine-2,3′-pyrano[2,3-c]quinolin]-6-yl]carbamate] | – | 1.33 nM | – | –
12 | CC1(S(=O)(=O)NC(=O)[C@@]23C[C@H]2/C=C\CCCCC[C@H](NC(=O)NC2CCCC2)C(=O)N2C[C@@]4(CCc5c(c(-c6cccc(F)c6)nc6ccccc56)O4)C[C@H]2C(=O)N3)CC1 [Example 82, (2R,6S,12Z,13aS,14aR,16aS)-6-[(cyclopentylcarbamoyl)amino]-5′-(3-fluorophenyl)-N-[(1-methylcyclopropyl)sulfonyl]-5,16-dioxo-1,1′,2′,6,7,8,9,10,11,13a,14,15,16,16a-tetradecahydrospiro[cyclopropa[e]pyrrolo[1,2-a][1,4]diazacyclopentadecine-2,3′-pyrano[2,3-c]quinoline]-14a(5H)-carboxamide] | – | 4.25 nM | – | –
13 | CC1(S(=O)(=O)NC(=O)[C@@]23C[C@H]2/C=C\CCCCC[C@H](NC(=O)NC2CCCCC2)C(=O)N2C[C@@]4(CCc5c(c(-c6cccc(F)c6)nc6ccccc56)O4)C[C@H]2C(=O)N3)CC1 [Example 83, (2R,6S,12Z,13aS,14aR,16aS)-6-[(cyclohexylcarbamoyl)amino]-5′-(3-fluorophenyl)-N-[(1-methylcyclopropyl)sulfonyl]-5,16-dioxo-1,1′,2′,6,7,8,9,10,11,13a,14,15,16,16a-tetradecahydrospiro[cyclopropa[e]pyrrolo[1,2-a][1,4]diazacyclopentadecine-2,3′-pyrano[2,3-c]quinoline]-14a(5H)-carboxamide] | – | 3.71 nM | – | –
14 | Cc1nc2ccccc2c2c1O[C@]1(CC2)C[C@H]2C(=O)N[C@]3(C(=O)NS(=O)(=O)C4(C)CC4)C[C@H]3/C=C\CCCCC[C@H](NC(=O)CC(F)(F)F)C(=O)N2C1 [Example 84, (2R,6S,12Z,13aS,14aR,16aS)-5′-methyl-N-[(1-methylcyclopropyl)sulfonyl]-5,16-dioxo-6-[(3,3,3-trifluoropropanoyl)amino]-1,1′,2′,6,7,8,9,10,11,13a,14,15,16,16a-tetradecahydrospiro[cyclopropa[e]pyrrolo[1,2-a][1,4]diazacyclopentadecine-2,3′-pyrano[2,3-c]quinoline]-14a(5H)-carboxamide] | – | 7.79 nM | – | –
15 | Cc1ccc2nc(C)c3c(c2c1)CC[C@]1(C[C@H]2C(=O)N[C@]4(C(=O)O)C[C@H]4/C=C\CCCCC[C@H](NC(=O)OC(C)(C)C)C(=O)N2C1)O3 [Example 86, (2R,6S,12Z,13aS,14aR,16aS)-6-[(tert-butoxycarbonyl)amino]-5′,9′-dimethyl-5,16-dioxo-1,1′,2′,6,7,8,9,10,11,13a,14,15,16,16a-tetradecahydrospiro[cyclopropa[e]pyrrolo[1,2-a][1,4]diazacyclopentadecine-2,3′-pyrano[2,3-c]quinoline]-14a(5H)-carboxylic acid] | – | > 100 nM | – | –
16 | CC(C)OC(=O)N[C@H]1CCCCC/C=C\[C@@H]2C[C@@]2(C(=O)NS(=O)(=O)C2(C)CC2)NC(=O)[C@@H]2C[C@]3(CCc4c(c(-c5cccc(F)c5)nc5ccccc45)O3)CN2C1=O [Example 89, propan-2-yl [(2R,6S,12Z,13aS,14aR,16aS)-5′-(3-fluorophenyl)-14a-{[(1-methylcyclopropyl)sulfonyl]carbamoyl}-5,16-dioxo-1,1′,2′,5,6,7,8,9,10,11,13a,14,14a,15,16,16a-hexadecahydrospiro[cyclopropa[e]pyrrolo[1,2-a][1,4]diazacyclopentadecine-2,3′-pyrano[2,3-c]quinolin]-6-yl]carbamate] | – | 2.85 nM | – | –
